The text below walks through data of ChEMBL document CHEMBL3045557, “A new benzil derivative from Derris scandens: Structure-insecticidal activity study” (2010).

For experiment [1], the system named is Achaea janata. The experiment in a line: Insecticidal activity against Achaea janata assessed as pupal weight at 2 ug/larva administered through topical application (reference value: 696.4 +/- 2.6 mg). Format: functional.
Experiment [2] concerns Achaea janata. The experiment in a line: Insecticidal activity against Achaea janata assessed as adult emergence at 4 ug/larva administered through topical application (reference value: 98.8 +/- 0.5 %). In kind it is functional.
Experiment [3] relates to Achaea janata. The experiment in a line: Insecticidal activity against Achaea janata assessed as larval mortality at 0.2 ug/larva administered through topical application. Format: functional.
For experiment [4], the system named is Achaea janata. The experiment in a line: Toxicity against Achaea janata after 24 hr by leaf disk method. In kind it is functional.
Experiment [5] deals with Achaea janata. The experiment in a line: Insecticidal activity against Achaea janata assessed as adult emergence at 2 ug/larva administered through topical application (reference value: 98.8 +/- 0.5 %). In kind it is functional.
For experiment [6], the system named is Achaea janata. Kind of experiment: Insecticidal activity against Achaea janata assessed as pupal mortality at 4 ug/larva administered through topical application. Format: functional.
Experiment [7] has as its system Achaea janata. Kind of experiment: Toxicity against Achaea janata at 1.25 ug/cm2 after 24 hr by leaf disk method. Format: functional.
Experiment [8] deals with Achaea janata. Kind of experiment: Antifeedant activity against Achaea janata by conventional no-choice disk method. Format: functional.
In experiment [9] the test system is Achaea janata. Kind of experiment: Insecticidal activity against Achaea janata assessed as pupal duration at 2 ug/larva administered through topical application (reference value: 10.3 +/- 0.1 days). In kind it is functional.
The subject of experiment [10] is Achaea janata. Kind of experiment: Insecticidal activity against Achaea janata assessed as pupal mortality at 2 ug/larva administered through topical application. Format: functional.
Experiment [11] relates to Achaea janata. The experiment in a line: Insecticidal activity against Achaea janata assessed as pupal duration at 4 ug/larva administered through topical application (reference value: 10.3 +/- 0.1 days). In kind it is functional.
Experiment [12] concerns Achaea janata. Kind of experiment: Insecticidal activity against Achaea janata assessed as pupal weight at 4 ug/larva administered through topical application (reference value: 696.4 +/- 2.6 mg). Format: functional.
Experiment [13] concerns Achaea janata. The experiment in a line: Insecticidal activity against Achaea janata assessed as adult deformity at 2 ug/larva administered through topical application. Format: functional.
The test system of experiment [14] is Achaea janata. The experiment in a line: Insecticidal activity against Achaea janata assessed as adult deformity at 4 ug/larva administered through topical application. Format: functional.
Experiment [15] relates to Achaea janata. Kind of experiment: Antifeedant activity against Achaea janata at 1.25 ug/cm2 by conventional no-choice disk method. Format: functional.
Experiment [16] deals with Achaea janata. Kind of experiment: Antifeedant activity against Achaea janata at 1 ug/cm2 by conventional no-choice disk method. Format: functional, organism-based.
For experiment [17], the system named is Achaea janata. The experiment in a line: Toxicity against Achaea janata at 10 ug/cm2 after 24 hr by leaf disk method. In kind it is functional.
The test system of experiment [18] is Achaea janata. Kind of experiment: Insecticidal activity against Achaea janata assessed as larval duration at 2 ug/larva administered through topical application (reference value: 7.3 +/- 0.1 days). In kind it is functional.
Experiment [19] deals with Achaea janata. Kind of experiment: Antifeedant activity against Achaea janata at 2 ug/cm2 by conventional no-choice disk method. In kind it is functional, organism-based.
The test system of experiment [20] is Achaea janata. Kind of experiment: Insecticidal activity against Achaea janata assessed as larval mortality at 2 ug/larva administered through topical application. Format: functional.
In experiment [21] the test system is Achaea janata. The experiment in a line: Antifeedant activity against Achaea janata at 10 ug/cm2 by conventional no-choice disk method. Format: functional.
Experiment [22] concerns Achaea janata. Kind of experiment: Insecticidal activity against Achaea janata assessed as larval duration at 4 ug/larva administered through topical application (reference value: 7.3 +/- 0.1 days). Format: functional.
The test system of experiment [23] is Achaea janata. The experiment in a line: Insecticidal activity against Achaea janata assessed as larval mortality at 4 ug/larva administered through topical application. Format: functional.

Active and inactive are the calls of the source. The calls are words filed in the database; no cut-off is given here.

`C/C=C(\C)C(=O)O[C@H]1C[C@@H](OC(C)=O)[C@@]2(C(=O)OC)CO[C@H]3[C@@H](O)[C@@](C)([C@]45O[C@@]4(C)[C@@H]4C[C@H]5O[C@@H]5OC=C[C@@]54O)[C@H]4[C@]1(CO[C@]4(O)C(=O)OC)[C@@H]32` [AZADIRACHTIN A]: the Activity turned out to be 696.4 mg in the experiment with Achaea janata [1]; 98.8% in the experiment on Achaea janata [2]; 98.8% with Achaea janata [5]; 100% in the experiment with Achaea janata [7]; 696.4 mg with Achaea janata [12]; 0% in the experiment on Achaea janata [13]. In addition, the Activity in the experiment on Achaea janata [14] is listed as 0%. Moreover, the mortality (in general, the share of the test organisms that died) in the experiment with Achaea janata [3] was found to be 100%; in the experiment with Achaea janata [6], 0%; in the experiment with Achaea janata [10], 0%. Further, the LD50 in the experiment with Achaea janata [4] stood at 0.67 microg/cm2. This molecule also displayed an ED50 in the experiment on Achaea janata [8] of 0.72 microg/cm2. Also, the Time with Achaea janata [9] and in the experiment on Achaea janata [11] was 10.3 days in each case. The molecule further returned an AFI in the experiment with Achaea janata [15] of 100%.

As for `COc1c(CC=C(C)C)c2c(c(O)c1C(=O)C(=O)c1ccc(O)cc1)C=CC(C)(C)O2`, the Activity with Achaea janata [1] was found to be 524.4 mg; in the experiment on Achaea janata [2], 6.7%; in the experiment with Achaea janata [17] it was 100%; in the experiment with Achaea janata [5], 34.5%; in the experiment on Achaea janata [12] it was 515.4 mg; with Achaea janata [13], 16.2%. Further, the Activity with Achaea janata [14] was 19%. The LD50 with Achaea janata [4] came to 3.56 microg/cm2. The AFI entry with Achaea janata [16] and in the experiment with Achaea janata [19] was “inactive” in each case. The mortality in the experiment with Achaea janata [6] was found to be 31.6%; in the experiment with Achaea janata [20], 15.1%; in the experiment with Achaea janata [10], 20%; in the experiment on Achaea janata [23], 39.3%. Besides, the Time in the experiment on Achaea janata [18] amounted to 7.8 days; in the experiment on Achaea janata [9] it was 13 days; with Achaea janata [11] it was 13.5 days; in the experiment on Achaea janata [22], 8.5 days. For the same molecule, the ED50 in the experiment on Achaea janata [8] is 3.31 microg/cm2. Further, in the experiment on Achaea janata [21], the AFI worked out at 96.8%.

Turning to `COc1ccc(-c2c(O)c3c(OC)c(CC=C(C)C)c4c(c3oc2=O)C=CC(C)(C)O4)cc1` [SCANDENIN A], the Activity in the experiment with Achaea janata [1] came to 601.2 mg; in the experiment on Achaea janata [2], 31.5%; in the experiment on Achaea janata [17] it was 0%; in the experiment with Achaea janata [5] it was 71.5%; with Achaea janata [12], 605 mg; in the experiment on Achaea janata [13], 0%. In addition, the Activity with Achaea janata [14] is 6.6%. In the experiment on Achaea janata [4], the LD50 result was “inactive”. Besides, the AFI entry in the experiment on Achaea janata [16] and in the experiment with Achaea janata [19] was “inactive” in each case. Besides, the mortality turned out to be 32.8% in the experiment on Achaea janata [6], 11.6% with Achaea janata [20], 19.8% with Achaea janata [10] and 15.2% in the experiment on Achaea janata [23]. The Time in the experiment with Achaea janata [18] turned out to be 9.3 days; in the experiment with Achaea janata [9], 10.5 days; in the experiment on Achaea janata [11], 10.5 days; with Achaea janata [22], 11.1 days. Besides, the ED50 entry in the experiment with Achaea janata [8] was “inactive”. The molecule also gave an AFI in the experiment with Achaea janata [21] of 4%.

On to `C[C@@H]1O[C@@H](OC[C@H]2O[C@@H](Oc3cc(O)c4c(=O)c(-c5ccc(O)cc5)coc4c3)[C@H](O)[C@@H](O)[C@@H]2O)[C@H](O)[C@H](O)[C@H]1O` [SPHAEROBIOSIDE], for which the Activity in the experiment with Achaea janata [1] is 508.6 mg; in the experiment on Achaea janata [2], 7.5%; in the experiment on Achaea janata [17], 97.8%; in the experiment on Achaea janata [5], 32.7%; in the experiment with Achaea janata [12], 504.8 mg; with Achaea janata [13], 0%. For the same molecule, the Activity in the experiment on Achaea janata [14] stood at 9.5%. Further, the LD50 in the experiment with Achaea janata [4] turned out to be 3.87 microg/cm2. The AFI result with Achaea janata [16] and in the experiment on Achaea janata [19] was “inactive” each time. Besides, the mortality with Achaea janata [6] worked out at 41.2%; in the experiment on Achaea janata [20], 13%; with Achaea janata [10], 36%; in the experiment with Achaea janata [23] it was 31.8%. Also, the Time with Achaea janata [18] was determined as 10.8 days; with Achaea janata [9] it was 13.3 days; in the experiment on Achaea janata [11], 14.4 days; in the experiment with Achaea janata [22], 11.3 days. The ED50 with Achaea janata [8] is reported as 3.37 microg/cm2. The same molecule came in with an AFI in the experiment with Achaea janata [21] of 96.2%.

Regarding `CC(C)=CCc1c2c(c(O)c3c(=O)c(-c4ccc(O)cc4)coc13)C=CC(C)(C)O2` [WARANGALONE], the Activity in the experiment on Achaea janata [1] is recorded as 633.2 mg; in the experiment on Achaea janata [2], 50.3%; with Achaea janata [17] it was 6.8%; with Achaea janata [5], 63.6%; with Achaea janata [12] it was 572.6 mg; with Achaea janata [13], 5.5%. The Activity in the experiment on Achaea janata [14] is 11.8%. Moreover, the LD50 entry in the experiment on Achaea janata [4] was “inactive”. The AFI result in the experiment with Achaea janata [16] and in the experiment on Achaea janata [19] was “inactive” throughout. For the same molecule, the mortality was determined as 27.6% in the experiment with Achaea janata [6], 0% with Achaea janata [20], 17.8% in the experiment on Achaea janata [10] and 0% with Achaea janata [23]. Further, the Time was determined as 9.4 days in the experiment with Achaea janata [18], 11.7 days in the experiment on Achaea janata [9], 11.9 days with Achaea janata [11] and 9.8 days with Achaea janata [22]. Also, the ED50 entry in the experiment on Achaea janata [8] is “inactive”. The same molecule returned an AFI with Achaea janata [21] of 6.2%.
